# From ChEMBL document CHEMBL1139957, “Synthesis of furanosyl alpha-C-glycosides derived from 4-chloro-4-deoxy-alpha-D-galactose and their cytotoxic activities” (2007)
# Experiments:
# Assay type in all cases: functional
# A549 [1] = test: Cytotoxicity against human A549 cells at 100 umol/mL after 48 hrs by MTT assay
# A549 [2] = test: Cytotoxicity against human A549 cells at 50 umol/mL after 48 hrs by MTT assay
# A549 [3] = test: Cytotoxicity against human A549 cells at 200 umol/mL after 48 hrs by MTT assay
SMILES,Inhibition (A549 [1]) [%],Inhibition (A549 [2]) [%],Inhibition (A549 [3]) [%]
CC(=O)c1cc([C@H]2OC[C@@H](N)[C@@H]2Cl)oc1C,24.86,13.04,34.57
CCOC(=O)c1cc([C@H]2OC[C@@H](O)[C@@H]2Cl)oc1C,18.51,15.15,25.72
COC(=O)c1cc([C@H]2OCC(=O)[C@@H]2Cl)oc1C,28.55,21.49,37.67
CC(=O)c1cc([C@H]2OC[C@@H](O)[C@@H]2Cl)oc1C,31.92,24.36,39.36
CCOC(=O)c1cc([C@H]2OC[C@@H](OS(C)(=O)=O)[C@@H]2Cl)oc1C,18.55,15.3,27.87
CCOC(=O)c1cc([C@H]2OC[C@@H](N=[N+]=[N-])[C@@H]2Cl)oc1C,19.79,18.28,36.89
CC(=O)c1cc([C@H]2OC[C@@H](N=[N+]=[N-])[C@@H]2Cl)oc1C,48.6,32.73,56.7
CC(=O)c1cc(C2OC[C@@H](O)[C@@H]2O)oc1C (stereo partly drawn),27.4,23.14,33.09
CCOC(=O)c1cc([C@H]2OCC(=O)[C@@H]2Cl)oc1C,31.36,28.81,45.68
CCOC(=O)c1cc([C@H]2OC[C@@H](N)[C@@H]2Cl)oc1C,16.29,10.09,24.82
CC(=O)c1cc([C@H]2OC[C@@H](OS(C)(=O)=O)[C@@H]2Cl)oc1C,35.65,26.42,46.8
